Data reported in ChEMBL document CHEMBL1201862, “PubChem BioAssay data set” (2004).
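96-well plates; 48 h exposure; 5 concentrations. Endpoints by linear interpolation between flanking doses. Not reached: highest tested concentration assigned. Abbreviation: GI50, concentration required for 50% inhibition of growth.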 Active and inactive are the calls of the source. Cut-off read from the data, not from the text of the source: active = GI50 up to about 1.1 µM and inactive = higher.

Tests used:
Test in all cases: NCI-60 cell line screen, 48 h
HCC 2998 = tested on: HCC 2998
U-251 = tested on: U-251
NCI/ADR-RES = tested on: NCI/ADR-RES
SF-268 = tested on: SF-268
KM12 = tested on: KM12
OVCAR-3 = tested on: OVCAR-3
SK-MEL-2 = tested on: SK-MEL-2
RPMI-8226 = tested on: RPMI-8226
LOX IMVI = tested on: LOX IMVI
SW-620 = tested on: SW-620
SF-295 = tested on: SF-295
MDA-MB-231 = tested on: MDA-MB-231
SK-MEL-28 = tested on: SK-MEL-28
HOP-62 = tested on: HOP-62
HCT-15 = tested on: HCT-15
NCI-H460 = tested on: NCI-H460
NCI-H226 = tested on: NCI-H226
UO-31 = tested on: UO-31
OVCAR-8 = tested on: OVCAR-8
TK-10 = tested on: TK-10
HL-60 = tested on: HL-60
HOP-92 = tested on: HOP-92
NCI-H522 = tested on: NCI-H522
IGROV-1 = tested on: IGROV-1
EKVX = tested on: EKVX
MOLT-4 = tested on: MOLT-4
PC-3 = tested on: PC-3
786-0 = tested on: 786-0
MDA-MB-435 = tested on: MDA-MB-435
HCT-116 = tested on: HCT-116
CCRF-CEM = tested on: CCRF-CEM
A498 = tested on: A498
NCI-H23 = tested on: NCI-H23
K562 = tested on: K562
M14 = tested on: M14
RXF 393 = tested on: RXF 393
SR = tested on: SR
MDA-N = tested on: MDA-N
OVCAR-5 = tested on: OVCAR-5
CAKI-1 = tested on: CAKI-1
SK-MEL-5 = tested on: SK-MEL-5
ACHN = tested on: ACHN
Hs-578T = tested on: Hs-578T
MCF7 = tested on: MCF7
HT-29 = tested on: HT-29
SK-OV-3 = tested on: SK-OV-3
T47D = tested on: T47D
OVCAR-4 = tested on: OVCAR-4
UACC-257 = tested on: UACC-257
DU-145 = tested on: DU-145
SF-539 = tested on: SF-539
SN12C = tested on: SN12C
SNB-75 = tested on: SNB-75
COLO 205 = tested on: COLO 205
UACC-62 = tested on: UACC-62
SNB-19 = tested on: SNB-19
A549 = tested on: A549

SMILES: COc1ccc(C=C2C(=O)NC(=S)NC2=O)c2ccccc12
- GI50 (HCC 2998): 32.6 µM (inactive)
- GI50 (U-251): 27.6 µM (inactive)
- GI50 (NCI/ADR-RES): 26.7 µM (inactive)
- GI50 (SF-268): 34.5 µM (inactive)
- GI50 (KM12): 44.3 µM (inactive)
- GI50 (OVCAR-3): 24 µM (inactive)
- GI50 (SK-MEL-2): 21.2 µM (inactive)
- GI50 (RPMI-8226): 34.5 µM (inactive)
- GI50 (LOX IMVI): 34.4 µM (inactive)
- GI50 (SW-620): 33.4 µM (inactive)
- GI50 (SF-295): 31.3 µM (inactive)
- GI50 (MDA-MB-231): 39.9 µM (inactive)
- GI50 (SK-MEL-28): 57.8 µM (inactive)
- GI50 (HOP-62): 30.4 µM (inactive)
- GI50 (HCT-15): 33.1 µM
- GI50 (NCI-H460): 12 µM (inactive)
- GI50 (NCI-H226): 0.179 µM (active)
- GI50 (UO-31): > 100 µM (inactive)
- GI50 (OVCAR-8): 33.4 µM (inactive)
- GI50 (TK-10): 7.6 µM (inactive)
- GI50 (HL-60): 24.3 µM (inactive)
- GI50 (HOP-92): > 100 µM (inactive)
- GI50 (NCI-H522): 47.2 µM (inactive)
- GI50 (IGROV-1): 38.3 µM (inactive)
- GI50 (EKVX): 82 µM (inactive)
- GI50 (MOLT-4): 83.2 µM (inactive)
- GI50 (PC-3): 26.2 µM (inactive)
- GI50 (786-0): 47 µM (inactive)
- GI50 (MDA-MB-435): 27 µM (inactive)
- GI50 (HCT-116): 40 µM (inactive)
- GI50 (CCRF-CEM): 32.4 µM (inactive)
- GI50 (A498): 0.224 µM (active)
- GI50 (NCI-H23): 32.8 µM (inactive)
- GI50 (K562): 43.4 µM (inactive)
- GI50 (M14): 45 µM (inactive)
- GI50 (RXF 393): 20.7 µM (inactive)
- GI50 (SR): 42.7 µM (inactive)
- GI50 (MDA-N): 18.1 µM (inactive)
- GI50 (OVCAR-5): 5.13 µM (inactive)
- GI50 (CAKI-1): 50.2 µM (inactive)
- GI50 (SK-MEL-5): 29.1 µM (inactive)
- GI50 (ACHN): 97.5 µM (inactive)
- GI50 (Hs-578T): 28.2 µM (inactive)
- GI50 (MCF7): 22.5 µM (inactive)
- GI50 (HT-29): 28.2 µM (inactive)
- GI50 (SK-OV-3): 37.1 µM (inactive)
- GI50 (T47D): 32.1 µM (inactive)
- GI50 (OVCAR-4): > 100 µM (inactive)
- GI50 (UACC-257): 14.4 µM (inactive)
- GI50 (DU-145): 23.8 µM (inactive)
- GI50 (SF-539): 22 µM (inactive)

SMILES: C=CC(C)(C)C1(CC(OC)OC)C(=O)N(C)c2ccccc21 (stereo not drawn)
- GI50 (HCC 2998): > 25 µM (inactive)
- GI50 (U-251): > 25 µM (inactive)
- GI50 (NCI/ADR-RES): > 25 µM (inactive)
- GI50 (SF-268): > 25 µM (inactive)
- GI50 (KM12): > 25 µM (inactive)
- GI50 (OVCAR-3): > 25 µM (inactive)
- GI50 (SK-MEL-2): > 25 µM (inactive)
- GI50 (RPMI-8226): > 25 µM (inactive)
- GI50 (LOX IMVI): > 25 µM (inactive)
- GI50 (SW-620): > 25 µM (inactive)
- GI50 (SF-295): > 25 µM (inactive)
- GI50 (MDA-MB-231): > 25 µM (inactive)
- GI50 (SK-MEL-28): > 25 µM (inactive)
- GI50 (HOP-62): > 25 µM (inactive)
- GI50 (HCT-15): > 25 µM
- GI50 (NCI-H460): > 25 µM (inactive)
- GI50 (NCI-H226): > 25 µM (inactive)
- GI50 (UO-31): > 25 µM (inactive)
- GI50 (OVCAR-8): > 25 µM (inactive)
- GI50 (HL-60): > 25 µM (inactive)
- GI50 (HOP-92): > 25 µM (inactive)
- GI50 (EKVX): > 25 µM (inactive)
- GI50 (SN12C): > 25 µM (inactive)
- GI50 (PC-3): > 25 µM (inactive)
- GI50 (786-0): > 25 µM (inactive)
- GI50 (MDA-MB-435): > 25 µM (inactive)
- GI50 (SNB-75): > 25 µM (inactive)
- GI50 (HCT-116): > 25 µM (inactive)
- GI50 (CCRF-CEM): > 25 µM (inactive)
- GI50 (COLO 205): > 25 µM (inactive)
- GI50 (UACC-62): > 25 µM (inactive)
- GI50 (A498): > 25 µM (inactive)
- GI50 (NCI-H23): > 25 µM (inactive)
- GI50 (K562): > 25 µM (inactive)
- GI50 (M14): > 25 µM (inactive)
- GI50 (RXF 393): > 25 µM (inactive)
- GI50 (SR): > 25 µM (inactive)
- GI50 (MDA-N): > 25 µM (inactive)
- GI50 (OVCAR-5): > 25 µM (inactive)
- GI50 (CAKI-1): > 25 µM (inactive)
- GI50 (SK-MEL-5): > 25 µM (inactive)
- GI50 (ACHN): > 25 µM (inactive)
- GI50 (Hs-578T): > 25 µM (inactive)
- GI50 (SNB-19): > 25 µM (inactive)
- GI50 (MCF7): > 25 µM (inactive)
- GI50 (HT-29): > 25 µM (inactive)
- GI50 (SK-OV-3): > 25 µM (inactive)
- GI50 (T47D): > 25 µM (inactive)
- GI50 (OVCAR-4): > 25 µM (inactive)
- GI50 (A549): > 25 µM (inactive)
- GI50 (UACC-257): > 25 µM (inactive)
- GI50 (DU-145): > 25 µM (inactive)
